The text below walks through data of ChEMBL document CHEMBL1144557, “The novel C-5 aryl, alkenyl, and alkynyl substituted uracil derivatives of L-ascorbic acid: synthesis, cytostatic, and antiviral activity evaluations” (Bioorg Med Chem, 2007).

Each structure is given as a SMILES string. In brackets after ≈: the same amount, converted by molar mass. Some results are limits rather than exact numbers.

The subject of the first experiment is Vaccinia virus. Nature of the experiment: Antiviral activity against Vaccinia virus-induced cytopathogenicity in E6SM cells. Type of experiment: functional. Particulars: Orthopoxvirus vaccinia.
For the molecule `O=C1O/C(=C\Cn2cc(-c3ccco3)c(=O)[nH]c2=O)C(OCc2ccccc2)=C1OCc1ccccc1`, the MIC was greater than 6.4 µM.

The molecule `O=C1O/C(=C\Cn2cc(-c3cccs3)c(=O)[nH]c2=O)C(OCc2ccccc2)=C1OCc1ccccc1` had an MIC greater than 156 µM.

As to `O=C1O/C(=C\Cn2cc(-c3ccc(Br)o3)c(=O)[nH]c2=O)C(OCc2ccccc2)=C1OCc1ccccc1`, the MIC is greater than 70 µM.

For `NC(=O)c1ncn([C@@H]2O[C@H](CO)[C@@H](O)[C@H]2O)n1` [RIBAVIRIN], the MIC turned out to be 100 µM (≈ 24.4 µg/mL).

For `C=Cc1cn(C/C=C2\OC(=O)C(O)=C2O)c(=O)[nH]c1=O`, the MIC was greater than 144 µM.

With `O=C1O/C(=C\Cn2cc(C#Cc3ccccc3)c(=O)[nH]c2=O)C(OCc2ccccc2)=C1OCc1ccccc1`, the MIC is greater than 40 µM.

The molecule `C=C=Cc1cn(C/C=C2\OC(=O)C(OCc3ccccc3)=C2OCc2ccccc2)c(=O)[nH]c1=O` registered an MIC greater than 8 µM.

In turn, `CC#Cc1cn(C/C=C2\OC(=O)C(OCc3ccccc3)=C2OCc2ccccc2)c(=O)[nH]c1=O` displayed an MIC greater than 0.4 µM.

For the molecule `Nc1nc2c(ncn2COC(CO)CO)c(=O)[nH]1` [GANCICLOVIR], the MIC amounted to 60 µM (≈ 15.3 µg/mL).

In turn, `O=C1O/C(=C\Cn2cc(/C=C/Br)c(=O)[nH]c2=O)C(OCc2ccccc2)=C1OCc1ccccc1` gave an MIC greater than 150 µM.

Consider `O=C1O/C(=C\Cn2cc(-c3ccc(Cl)o3)c(=O)[nH]c2=O)C(OCc2ccccc2)=C1OCc1ccccc1`, for which the MIC was greater than 150 µM.

`O=C1O/C(=C(\Br)Cn2c(Br)c(/C=C/Br)c(=O)[nH]c2=O)C(OCc2ccccc2)=C1OCc1ccccc1` returned an MIC greater than 116 µM.

`Nc1nc2c(ncn2COCCO)c(=O)[nH]1` [ACYCLOVIR]: the MIC was 300 µM (≈ 67.6 µg/mL).

`C=CCc1cn(C/C=C2\OC(=O)C(OCc3ccccc3)=C2OCc2ccccc2)c(=O)[nH]c1=O` yielded an MIC greater than 8 µM.

On to `O=c1[nH]c(=O)n([C@H]2C[C@H](O)[C@@H](CO)O2)cc1/C=C/Br` [BRIVUDINE], for which the MIC came out at 2.4 µM (≈ 0.8 µg/mL).

For `O=C1O/C(=C\Cn2cc(-c3ccccc3)c(=O)[nH]c2=O)C(OCc2ccccc2)=C1OCc1ccccc1`, the MIC worked out at 95 µM (≈ 48.3 µg/mL).

Another experiment relates to Vaccinia virus. In words: Antiviral activity against Vaccinia virus-induced cytopathogenicity in HEL cells. Particulars: Orthopoxvirus vaccinia. The experiment is classed as functional.
`C#Cc1cn(C/C=C2\OC(=O)C(OCc3ccccc3)=C2OCc2ccccc2)c(=O)[nH]c1=O` had an MIC greater than 18 µM.

In turn, `O=C1O/C(=C\Cn2cc(-c3ccccc3)c(=O)[nH]c2=O)C(O)=C1O` returned an MIC greater than 100 µM.

With `O=C1O/C(=C\Cn2cc(C#Cc3ccccc3)c(=O)[nH]c2=O)C(O)=C1O`, the MIC turned out to be 4 µM (≈ 1.41 µg/mL).

Regarding `O=C1O/C(=C\Cn2cc(-c3ccco3)c(=O)[nH]c2=O)C(O)=C1O`, the MIC is greater than 100 µM.

Consider `CC(C)=CCc1cn(C/C=C2\OC(=O)C(OCc3ccccc3)=C2OCc2ccccc2)c(=O)[nH]c1=O`, for which the MIC is 4 µM (≈ 2 µg/mL).

Consider `C#Cc1cn(C/C=C2\OC(=O)C(O)=C2O)c(=O)[nH]c1=O`, for which the MIC turned out to be 4 µM (≈ 1.1 µg/mL).

Consider `C=Cc1cn(C/C=C2\OC(=O)C(OCc3ccccc3)=C2OCc2ccccc2)c(=O)[nH]c1=O`, for which the MIC is greater than 18 µM.

`O=C1O/C(=C\Cn2cc(-c3cccs3)c(=O)[nH]c2=O)C(O)=C1O` registered an MIC greater than 100 µM.
